Assay results as given in ChEMBL document CHEMBL3045832, “3-Aryl-2-{4-[4-(2,4-dioxothiazolidin-5-ylmethyl)phenoxy]-phenyl}-acrylic acid alkyl ester: synthesis and antihyperglycemic evaluation” (2011).

Tests used:
Type in all cases: functional
Set-up in all cases: scale not given: the % may be the effect or the level left
Rattus norvegicus [1] = experiment: Antihyperglycemic activity in streptozotocin-induced Rattus norvegicus Wistar (rat) diabetic model assessed as reduction in plasma glucose level at 25 umol/kg, po for 15 measured after treatment
Rattus norvegicus [2] = experiment: Antihyperglycemic activity in streptozotocin-induced Rattus norvegicus Wistar (rat) diabetic model assessed as reduction in plasma glucose level at 30 umol/kg, po for 9 weeks measured at 15 day
Rattus norvegicus [3] = experiment: Antihyperglycemic activity in streptozotocin-induced Rattus norvegicus Wistar (rat) diabetic model assessed as reduction in plasma glucose level at 30 umol/kg, po for 9 weeks measured on day 7
Rattus norvegicus [4] = experiment: Antihyperglycemic activity in streptozotocin-induced Rattus norvegicus Wistar (rat) diabetic model assessed as reduction in plasma glucose level at 30 umol/kg, po for 9 weeks measured at 3 day
Rattus norvegicus [5] = experiment: Antihyperglycemic activity in streptozotocin-induced Rattus norvegicus Wistar (rat) diabetic model assessed as reduction in plasma glucose level at 20 umol/kg, po for 9 weeks measured on day 7
Rattus norvegicus [6] = experiment: Antihyperglycemic activity in streptozotocin-induced Rattus norvegicus Wistar (rat) diabetic model assessed as reduction in plasma glucose level at 15 umol/kg, po for 9 weeks measured on day 7
Rattus norvegicus [7] = experiment: Antihyperglycemic activity in streptozotocin-induced Rattus norvegicus Wistar (rat) diabetic model assessed as reduction in plasma glucose level at 20 umol/kg, po for 9 weeks measured at 3 day
Rattus norvegicus [8] = experiment: Antihyperglycemic activity in streptozotocin-induced Rattus norvegicus Wistar (rat) diabetic model assessed as reduction in plasma glucose level at 25 umol/kg, po for 9 weeks measured on day 7
Rattus norvegicus [9] = experiment: Antihyperglycemic activity in streptozotocin-induced Rattus norvegicus Wistar (rat) diabetic model assessed as reduction in plasma glucose level at 30 umol/kg, po for 9 weeks measured at 10 day
Rattus norvegicus [10] = experiment: Antihyperglycemic activity in streptozotocin-induced Rattus norvegicus Wistar (rat) diabetic model assessed as reduction in plasma glucose level at 15 umol/kg, po for 9 weeks measured at 3 day
Rattus norvegicus [11] = experiment: Antihyperglycemic activity in streptozotocin-induced Rattus norvegicus Wistar (rat) diabetic model assessed as reduction in plasma glucose level at 15 umol/kg, po for 9 weeks measured at 10 day
Rattus norvegicus [12] = experiment: Antihyperglycemic activity in streptozotocin-induced Rattus norvegicus Wistar (rat) diabetic model assessed as reduction in plasma glucose level at 20 umol/kg, po for 9 weeks measured at 10 day
Rattus norvegicus [13] = experiment: Antihyperglycemic activity in streptozotocin-induced Rattus norvegicus Wistar (rat) diabetic model assessed as reduction in plasma glucose level at 20 umol/kg, po for 9 weeks measured at 15 day
Rattus norvegicus [14] = experiment: Antihyperglycemic activity in streptozotocin-induced Rattus norvegicus Wistar (rat) diabetic model assessed as reduction in plasma glucose level at 15 umol/kg, po for 9 weeks measured at 15 day
Rattus norvegicus [15] = experiment: Antihyperglycemic activity in streptozotocin-induced Rattus norvegicus Wistar (rat) diabetic model assessed as reduction in plasma glucose level at 25 umol/kg, po for 9 weeks measured at 3 day
Rattus norvegicus [16] = experiment: Antihyperglycemic activity in streptozotocin-induced Rattus norvegicus Wistar (rat) diabetic model assessed as reduction in plasma glucose level at 25 umol/kg, po for 9 weeks measured at 10 day
Rattus norvegicus [17] = experiment: Antihyperglycemic activity in streptozotocin-induced Rattus norvegicus Wistar (rat) diabetic model assessed as reduction in plasma glucose level at 25 umol/kg, po for 9 weeks measured at 15 day

Compound	Activity (Rattus norvegicus [1]) [%]	other results
CCCOC(=O)/C(=C/c1ccccc1)c1ccc(Oc2ccc(CC3SC(=O)NC3=O)cc2)cc1 (stereo not given)	8.6	
CCCOC(=O)/C(=C/c1ccc(OC)cc1)c1ccc(Oc2ccc(CC3SC(=O)NC3=O)cc2)cc1 (stereo not given)	13	
CCOC(=O)/C(=C/c1ccc(OC)c(OC)c1)c1ccc(Oc2ccc(CC3SC(=O)NC3=O)cc2)cc1 (stereo not given)	37.15	
CCOC(=O)/C(=C/c1ccc(O)cc1)c1ccc(Oc2ccc(CC3SC(=O)NC3=O)cc2)cc1 (stereo not given)	18.16	
CCCOC(=O)/C(=C/c1ccc(Br)cc1)c1ccc(Oc2ccc(CC3SC(=O)NC3=O)cc2)cc1 (stereo not given)	13.42	
COC(=O)/C(=C/c1ccc(O)cc1)c1ccc(Oc2ccc(CC3SC(=O)NC3=O)cc2)cc1 (stereo not given)	18.81	
COC(=O)/C(=C/c1ccc(OC)cc1OC)c1ccc(Oc2ccc(CC3SC(=O)NC3=O)cc2)cc1 (stereo not given)	46.13	
CCCOC(=O)/C(=C/c1ccc(OC)c(OC)c1)c1ccc(Oc2ccc(CC3SC(=O)NC3=O)cc2)cc1 (stereo not given)	35.85	
CCOC(=O)/C(=C/c1ccc(Br)cc1)c1ccc(Oc2ccc(CC3SC(=O)NC3=O)cc2)cc1 (stereo not given)	13.63	
CN(CCOc1ccc(CC2SC(=O)NC2=O)cc1)c1ccccn1 (stereo not given) [ROSIGLITAZONE]	56.73	
COC(=O)/C(=C/c1ccccc1)c1ccc(Oc2ccc(CC3SC(=O)NC3=O)cc2)cc1 (stereo not given)	10.74	
COC(=O)/C(=C/c1cccc(OC)c1OC)c1ccc(Oc2ccc(CC3SC(=O)NC3=O)cc2)cc1 (stereo not given)	37.05	
CCCOC(=O)/C(=C/c1ccc(OC)cc1OC)c1ccc(Oc2ccc(CC3SC(=O)NC3=O)cc2)cc1 (stereo not given)	45.91	
COC(=O)/C(=C/c1ccc([N+](=O)[O-])cc1)c1ccc(Oc2ccc(CC3SC(=O)NC3=O)cc2)cc1 (stereo not given)	13.26	
CCOC(=O)/C(=C/c1ccc([N+](=O)[O-])cc1)c1ccc(Oc2ccc(CC3SC(=O)NC3=O)cc2)cc1 (stereo not given)	13.4	
COC(=O)/C(=C/c1ccc(Br)cc1)c1ccc(Oc2ccc(CC3SC(=O)NC3=O)cc2)cc1 (stereo not given)	15.58	
CCCOC(=O)/C(=C/c1cccc(OC)c1OC)c1ccc(Oc2ccc(CC3SC(=O)NC3=O)cc2)cc1 (stereo not given)	37.24	Activity (Rattus norvegicus [2]): 35.47%; Activity (Rattus norvegicus [3]): 20.87%; Activity (Rattus norvegicus [4]): 19.42%; Activity (Rattus norvegicus [5]): 14.56%; Activity (Rattus norvegicus [6]): 11.49%; Activity (Rattus norvegicus [7]): 10.91%; Activity (Rattus norvegicus [8]): 21.34%; Activity (Rattus norvegicus [9]): 24.68%; Activity (Rattus norvegicus [10]): 8.38%; Activity (Rattus norvegicus [11]): 15.53%; Activity (Rattus norvegicus [12]): 17.26%; Activity (Rattus norvegicus [13]): 21.76%; Activity (Rattus norvegicus [14]): 18.47%; Activity (Rattus norvegicus [15]): 18.06%; Activity (Rattus norvegicus [16]): 25.53%; Activity (Rattus norvegicus [17]): 37.24%
CCOC(=O)/C(=C/c1ccccc1)c1ccc(Oc2ccc(CC3SC(=O)NC3=O)cc2)cc1 (stereo not given)	9.8	
CCCOC(=O)/C(=C/c1ccc([N+](=O)[O-])cc1)c1ccc(Oc2ccc(CC3SC(=O)NC3=O)cc2)cc1 (stereo not given)	12.45	
CCCOC(=O)/C(=C/c1ccc(O)cc1)c1ccc(Oc2ccc(CC3SC(=O)NC3=O)cc2)cc1 (stereo not given)	17.48	
CCOC(=O)/C(=C/c1ccc(OC)cc1OC)c1ccc(Oc2ccc(CC3SC(=O)NC3=O)cc2)cc1 (stereo not given)	46.03	
CCOC(=O)/C(=C/c1ccc(OC)cc1)c1ccc(Oc2ccc(CC3SC(=O)NC3=O)cc2)cc1 (stereo not given)	14.61	
COC(=O)/C(=C/c1ccc(OC)cc1)c1ccc(Oc2ccc(CC3SC(=O)NC3=O)cc2)cc1 (stereo not given)	16.3	
COC(=O)/C(=C/c1ccc(OC)c(OC)c1)c1ccc(Oc2ccc(CC3SC(=O)NC3=O)cc2)cc1 (stereo not given)	38.11	
